Results on one molecule are retold here after patent US8629100B2, “Method of inhibiting clostridium difficile by administration of oritavancin” (The Medicines Company, priority 2007, dated 2014).

Common to all, as to type: cell-based
The test system of test [1] is C. difficile vegetative cultures and spores. The experiment in a line: Spiral gradient endpoint analysis MIC. The conditions noted are these: data not shown. Here is the method:
C. difficile PCR ribotypes 001, 106 and 027 were inoculated onto Columbia blood agar and incubated anaerobically (37° C.) for 10 d. Growth was harvested into sterile saline and alcohol shocked in an equal volume of 100% ethanol for 1 h. Alcohol-shocked spore suspensions were mixed by vortexing and sonicated for 5 minutes at room temperature. C. difficile phase-bright (non-germinated) spores were separated from phase-dark (germinated) spores and cellular debris by density gradient centrifugation (4000 rpm 15 minutes) following layering onto 50% (v/v in phosphate buffered saline) Urografin 370 (Schering, Germany). The density gradient centrifugation step was performed twice. Pellets of purified spores were re-suspended in sterile saline (1 mL per 10 Columbia blood agar plates harvested). Percentage phase-bright spores, phase-dark spores and vegetative cells were recorded using phase-contrast microscopy (×100 magnification).
A spiral plater (WASP2, Don Whitley Scientific, UK) was used to apply a logarithmic antibiotic gradient onto the surface of pre-dried (37° C. 20 minutes) Brazier's agar (pH 7). Agar with logarithmic antimicrobial gradients applied to their surface remained at room temperature for 1 h to allow the antimicrobial agent to adsorb into the agar. C. difficile vegetative cultures and spores (˜10^7 cfu/mL) were inoculated onto the agar surface (FIG. 1) with a sterile cotton swab and incubated anaerobically (37° C., 24 h). D-values were measured (in mm) and converted to MICs (Paton, J. H.1990. Int J Exp Clin Chemother. 9, 31-38).

In test [2] the test system is C. difficile PCR ribotype 027 spores. Description: Phase-contrast microscopy of spore germination/outgrowth. As to conditions: 10 mg/L for 2 h, washed 3x in PBS. How it is done: C. difficile spores were also exposed to 10 mg/L antimicrobial for 2 h, washed 3× in sterile PBS, re-suspended and inoculated into Brazier's broth medium (pH 7). Samples were removed at 2, 4, 6, 24, 32 and 48 h. Slides were viewed under phase-contrast microscopy and percentages of phase-bright spores, phase-dark spores and vegetative cells were recorded (FIG. 4).
Statistical analyses were performed by transforming percentage data using an Arcsin Transformation and analysed using a Wilcoxon signed rank test. P<0.05 was considered statistically significant. Supra-MIC concentrations of all antimicrobials prevented outgrowth but not germination of C. difficile spores.

Test [3] relates to C. difficile spores (PCR ribotypes 001, 106 and 027). The experiment in a line: Viability (recovery) of spores after antibiotic exposure, cellulose acetate filtration (Examples 3A, 3B). How it is done:
The experiments were in general performed by mixing C. difficile spores with an antibiotic, filtering the solution through cellulose acetate filters to collect the spores, applying the spore-containing filters to nutrient agar, and determining the number of spores remaining on the filters after a selected period of time.
Therefore, the initial experiment included dilution of antimicrobial-containing spore suspensions prior to filtration and washing. Reaction volumes were 1 mL for all antimicrobial/control solutions.
1 mL of control (de-ionised water+/−Tween-80) and test (antimicrobial containing) solutions were inoculated with 10 μL C. difficile spores (3 strains; PCR ribotypes 001, 106 and 027). Spore suspensions (time=1 min or 30 min) were transferred to filtration cupules and the appropriate volume of diluent (sterile de-ionised water+/−Tween-80) was added to achieve the dilution factors noted above. Samples were filtered onto cellulose acetate filters and washed with a further 50 mL of the appropriate diluent. Filters were transferred aseptically to Braziers CCEY agar containing 5 mg/L lysozyme and 2% lysed horse blood. This procedure was completed in duplicate. The culture media were incubated in an anaerobic atmosphere at 37° C. for 48 h and the numbers of C. difficile colonies were recorded.
Diluent was first added to filtration cupules. 1 mL reactions were then added to the appropriate diluent (1 min and 30 min after reaction formation) and filtered onto cellulose acetate filters. The filters were washed with 50 mL of the appropriate diluent. The filters were then transferred aseptically to Braziers CCEY agar containing 5 mg/L lysozyme and 2% lysed horse blood. This procedure was completed in duplicate. Culture media were incubated in an anaerobic atmosphere at 37° C. for 48 h and the numbers of C. difficile colonies recorded

For test [4], the system named is genotypically distinct C. difficile (n = 33). The experiment in a line: Broth macrodilution MIC. As to conditions: Clostridioides difficile, BM, broth macrodilution.
The test system is the same in test [5]. The experiment in a line: Agar incorporation MIC. As to conditions: for MIC90 / MIC range / MIC: AI; for MIC: read-out: GEO MIC. From the text:
Thirty-three genotypically distinct (by PCR ribotyping) C. difficile isolates were selected from a library of strains at the Leeds General Infirmary (Leeds, UK). Representative isolates of epidemic C. difficile PCR ribotypes 001, 106 and 027 were included in the panel. Control isolates of Staphylococcus aureus ATCC 29213, Enterococcus faecalis ATCC 29212 and Bacteroides fragilis ATCC 25285 were included in all MIC determinations to ensure procedure accuracy.
Agar incorporation MICs were determined based on the method of Freeman and Wilcox (J Antimicrob Chemother 2001; 47: 244-6). Briefly, bacteria were cultured in Schaedler's anaerobic broth (Oxoid, Basingstoke, UK) at 37° C. for 24 h in an anaerobic cabinet (Don Whitley Scientific, Shipley). […] Oritavancin was prepared in 0.002% P80. All antimicrobial solutions were sterilized by filtration through 0.22 um syringe filters. […] Wilkins Chalgren agar (Oxoid) incorporating doubling dilutions of antimicrobial agents (0.03-16 mg/L) was prepared with and without 0.002% P80 and with and without 2% lysed horse blood (E&O Labs, Bonneybridge, UK). All media and diluents were pre-reduced overnight in the anaerobic cabinet. Bacterial cultures were diluted in sterile saline and inoculated onto the surface of agar incorporation agar plates using a multipoint inoculator (˜10^4 cfu). Agar incorporation plates were incubated anaerobically for 48 h. MIC endpoints were read as the lowest concentration of antimicrobial agent where there is no apparent growth (disregarding a visible haze of growth or a single colony).

Molecules are shown by their SMILES. ≈ marks a conversion by molar mass, not a printed value.

Usually MIC90 stands for an inhibitory concentration at the 90% level, which refers to growth in some studies and to a panel of isolates in others. The term MIC denotes the least concentration at which growth counts as inhibited. Take `Cc1ncc([N+](=O)[O-])n1CCO` [metronidazole]: the “MICs for C. difficile vegetative cells versus spores” value in test [1] is reported as “did not differ substantially”. Besides, the “Outgrowth of C. difficile spores prior-exposed to antimicrobial” value in test [2] is “not observed”. The “Recovery of C. difficile spores” value in test [3] (Example 3A: diluent added after reaction solutions, 1 min and 30 min exposure) was 90-110 % of controls; in test [3] (Example 3B: diluent added to cupules before reaction solutions, 1 min and 30 min), 95-110 % of controls. For the same molecule, the MIC90 amounted to 2 mg/L (≈ 11.7 µM) in test [4]; 2 mg/L (≈ 11.7 µM) in test [5] (P80 no LHB); 2 mg/L (≈ 11.7 µM) in test [5] (no P80 no LHB); 2 mg/L (≈ 11.7 µM) in test [5] (no P80 with LHB); 2 mg/L (≈ 11.7 µM) in test [5] (Clostridioides difficile, P80 with LHB, read-out: MIC90). The minimum inhibitory concentration (MIC) in test [4] (read-out: GEO MIC) was determined as 0.56 mg/L (≈ 3.27 µM); in test [5] (Clostridioides difficile, P80 no LHB), 0.55 mg/L (≈ 3.21 µM); in test [5] (Clostridioides difficile, P80 with LHB) it was 0.55 mg/L (≈ 3.21 µM); in test [5] (Clostridioides difficile, no P80 no LHB), 0.53 mg/L (≈ 3.1 µM); in test [5] (Clostridioides difficile, no P80 with LHB) it was 0.69 mg/L (≈ 4.03 µM). The MIC range was 0.25 to 2 mg/L in test [5] (P80 no LHB), 0.25 to 4 mg/L in test [5] (no P80 no LHB) and 0.5 to 4 mg/L in test [5] (no P80 with LHB). The “Agar incorporation geometric mean MICs lower than oritavancin MICs” value in test [5] (all agar conditions) is reported as 2- to 5 fold. In addition, in test [5] (all agar conditions), the “Agar incorporation geometric mean MICs lower than vancomycin MICs” value was 2- to 3 fold.
